As a reminder, the pIC50 is the IC50 on a negative log10 scale, so that one unit is a factor of ten.

pIC50: −log10 of the molar value.

This is an account of results in patent US10683269B2 (MISSION THERAPEUTICS LIMITED, priority 2016, dated 2020).

For the test, the target named is T1, USP7 (Homo sapiens, UniProt Q93009).
T1 construct: The USP7 construct was PCR amplified and cloned into a pFLAG-CMV-6a vector (Sigma-Aldrich) with an N-terminal FLAG tag; made in house; host or cells: HEK293T
T1 sequence (Q93009 whole entry): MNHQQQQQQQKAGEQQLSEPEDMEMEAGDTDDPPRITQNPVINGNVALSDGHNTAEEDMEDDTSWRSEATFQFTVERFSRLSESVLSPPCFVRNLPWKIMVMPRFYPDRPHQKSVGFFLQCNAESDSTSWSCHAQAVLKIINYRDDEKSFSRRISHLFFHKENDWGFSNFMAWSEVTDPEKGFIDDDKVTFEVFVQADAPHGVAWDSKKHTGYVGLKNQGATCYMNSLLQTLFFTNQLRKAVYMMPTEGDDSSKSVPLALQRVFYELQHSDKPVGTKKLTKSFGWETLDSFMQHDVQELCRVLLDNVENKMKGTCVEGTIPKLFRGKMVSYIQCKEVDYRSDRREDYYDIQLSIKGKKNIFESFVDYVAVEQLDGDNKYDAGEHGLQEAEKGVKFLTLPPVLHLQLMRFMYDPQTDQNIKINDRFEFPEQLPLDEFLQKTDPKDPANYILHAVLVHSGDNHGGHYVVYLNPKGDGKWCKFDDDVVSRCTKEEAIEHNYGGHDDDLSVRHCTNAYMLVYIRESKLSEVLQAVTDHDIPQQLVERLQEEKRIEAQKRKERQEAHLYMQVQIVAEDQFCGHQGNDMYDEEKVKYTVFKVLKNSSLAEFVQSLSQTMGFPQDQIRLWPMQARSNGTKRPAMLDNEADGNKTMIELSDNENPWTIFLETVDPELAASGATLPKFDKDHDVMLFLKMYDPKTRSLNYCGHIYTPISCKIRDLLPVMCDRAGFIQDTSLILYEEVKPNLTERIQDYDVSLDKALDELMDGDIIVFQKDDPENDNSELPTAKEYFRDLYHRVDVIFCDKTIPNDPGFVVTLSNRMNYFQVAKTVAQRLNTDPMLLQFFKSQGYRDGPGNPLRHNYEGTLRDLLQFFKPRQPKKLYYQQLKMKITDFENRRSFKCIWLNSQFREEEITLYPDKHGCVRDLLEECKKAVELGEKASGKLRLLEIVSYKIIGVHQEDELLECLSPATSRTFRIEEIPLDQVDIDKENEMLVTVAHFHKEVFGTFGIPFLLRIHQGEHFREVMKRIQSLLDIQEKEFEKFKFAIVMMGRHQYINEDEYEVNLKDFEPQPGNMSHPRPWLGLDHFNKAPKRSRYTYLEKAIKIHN
Description: USP7 biochemical IC50 assay (fluorescence polarisation, TAMRA labelled peptide linked to ubiquitin via an iso-peptide bond). The note with it: 30 min pre-incubation of enzyme and compound, read after 2 hr incubation at room temperature, read-out: IC50 range. The method in brief:
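Fluorescence polarisation at 540 nm excitation/590 nm emission, read immediately and after 2 hr at room temperature, following addition of 50 nM TAMRA-labelled iso-peptide ubiquitin substrate.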
As to `CN1CCOC(CN(C)c2nc3c(c(-c4ccccc4)n2)CN(C#N)C3)C1` (stereo not shown) [Example 191, 2-(methyl((4-methylmorpholin-2-yl)methyl)amino)-4-phenyl-5,7-dihydro-6H-pyrrolo[3,4-d]pyrimidine-6-carbonitrile], the pIC50 was 5.00 to 6.00.

Regarding `CN1CCOC(CNc2nc3c(c(-c4cccnc4)n2)CN(C#N)C3)C1` (stereo not shown) [Example 192, 2-(((4-methylmorpholin-2-yl)methyl)amino)-4-(pyridin-3-yl)-5,7-dihydro-6H-pyrrolo[3,4-d]pyrimidine-6-carbonitrile], the pIC50 is 5.00 to 6.00.

In the case of `CN1CCOC(CNc2nc3c(c(-c4cccc(F)c4)n2)CN(C#N)C3)C1` (stereo not shown) [Example 193, 4-(3-fluorophenyl)-2-(((4-methylmorpholin-2-yl)methyl)amino)-5,7-dihydro-6H-pyrrolo[3,4-d]pyrimidine-6-carbonitrile], the negative logarithm of the IC50 (pIC50) was 5.00 to 6.00.

For `CN1CCOC(CNc2nc3c(c(-c4ccc(F)cc4)n2)CN(C#N)C3)C1` (stereo not shown) [Example 194, 4-(4-fluorophenyl)-2-(((4-methylmorpholin-2-yl)methyl)amino)-5,7-dihydro-6H-pyrrolo[3,4-d]pyrimidine-6-carbonitrile], the negative logarithm of the IC50 (pIC50) is 5.00 to 6.00.

In the case of `CC(=O)Nc1cccc(-c2nc(NCC3CN(C)CCO3)nc3c2CN(C#N)C3)c1` (stereo not shown) [Example 195, N-(3-(6-cyano-2-(((4-methylmorpholin-2-yl)methyl)amino)-6,7-dihydro-5H-pyrrolo[3,4-d]pyrimidin-4-yl)phenyl)acetamide], the pIC50 was 5.00 to 6.00.

Regarding `CN1CCCC(CNc2nc3c(c(N4CCc5ccccc5C4)n2)CN(C#N)C3)C1` (stereo not shown) [Example 196, 4-(3,4-dihydroisoquinolin-2(1H)-yl)-2-(((1-methylpiperidin-3-yl)methyl)amino)-5,7-dihydro-6H-pyrrolo[3,4-d]pyrimidine-6-carbonitrile], the negative logarithm of the IC50 (pIC50) was 5.00 to 6.00.

`CN1CCOC(CNc2nc3c(c(N4CCc5ccccc5C4)n2)CN(C#N)C3)C1` (stereo not shown) [Example 197, 4-(3,4-dihydroisoquinolin-2(1H)-yl)-2-(((4-methylmorpholin-2-yl)methyl)amino)-5,7-dihydro-6H-pyrrolo[3,4-d]pyrimidine-6-carbonitrile]: the negative logarithm of the IC50 (pIC50) was 5.00 to 6.00.

Consider `Cn1nccc1CNc1nc2c(c(N3CCc4ccccc4C3)n1)CN(C#N)C2` [Example 198, 4-(3,4-dihydroisoquinolin-2(1H)-yl)-2-(((1-methyl-1H-pyrazol-5-yl)methyl)amino)-5,7-dihydro-6H-pyrrolo[3,4-d]pyrimidine-6-carbonitrile], for which the pIC50 was 5.00 to 6.00.

For the compound `N#CN1Cc2nc(N[C@H]3CC[C@H](O)CC3)nc(N3CCc4ccccc4C3)c2C1` [Example 199], the negative-log IC50 (pIC50) was 5.00 to 6.00.

As to `N#CN1Cc2nc(NCC3CCOCC3)nc(N3CCc4ccccc4C3)c2C1` [Example 200, 4-(3,4-dihydroisoquinolin-2(1H)-yl)-2-(((tetrahydro-2H-pyran-4-yl)methyl)amino)-5,7-dihydro-6H-pyrrolo[3,4-d]pyrimidine-6-carbonitrile], the negative-log IC50 (pIC50) was 5.00 to 6.00.

Consider `Cn1cc(CNc2nc3c(c(N4CCc5ccccc5C4)n2)CN(C#N)C3)cn1` [Example 201, 4-(3,4-dihydroisoquinolin-2(1H)-yl)-2-(((1-methyl-1H-pyrazol-4-yl)methyl)amino)-5,7-dihydro-6H-pyrrolo[3,4-d]pyrimidine-6-carbonitrile], for which the pIC50 was 5.00 to 6.00.

With `N#CN1Cc2nc(NCCO)nc(N3CCc4ccccc4C3)c2C1` [Example 202, 4-(3,4-dihydroisoquinolin-2(1H)-yl)-2-((2-hydroxyethyl)amino)-5,7-dihydro-6H-pyrrolo[3,4-d]pyrimidine-6-carbonitrile], the negative logarithm of the IC50 (pIC50) was 5.00 to 6.00.

As to `CN1CCOC(CN(C)c2nc3c(c(N4CCc5ccccc5C4)n2)CN(C#N)C3)C1` (stereo not shown) [Example 203, 4-(3,4-dihydroisoquinolin-2(1H)-yl)-2-(methyl((4-methylmorpholin-2-yl)methyl)amino)-5,7-dihydro-6H-pyrrolo[3,4-d]pyrimidine-6-carbonitrile], the pIC50 is 5.00 to 6.00.

On to `CNc1nc2c(c(N3CCC(Oc4ccccc4)CC3)n1)CN(C#N)C2` [Example 204, 2-(methylamino)-4-(4-phenoxypiperidin-1-yl)-5,7-dihydro-6H-pyrrolo[3,4-d]pyrimidine-6-carbonitrile], for which the negative logarithm of the IC50 (pIC50) was 5.00 to 6.00.

With `CN(C)c1nc2c(c(N3CCC(Oc4ccccc4)CC3)n1)CN(C#N)C2` [Example 205, 2-(dimethylamino)-4-(4-phenoxypiperidin-1-yl)-5,7-dihydro-6H-pyrrolo[3,4-d]pyrimidine-6-carbonitrile], the pIC50 is 5.00 to 6.00.

Regarding `N#CN1Cc2nc(NCCO)nc(N3CCC(Oc4ccccc4)CC3)c2C1` [Example 206, 2-((2-hydroxyethyl)amino)-4-(4-phenoxypiperidin-1-yl)-5,7-dihydro-6H-pyrrolo[3,4-d]pyrimidine-6-carbonitrile], the pIC50 is 5.00 to 6.00.

For `N#CN1Cc2nc(N)nc(N3CCC(Oc4ccccc4)CC3)c2C1` [Example 207, 2-amino-4-(4-phenoxypiperidin-1-yl)-5,7-dihydro-6H-pyrrolo[3,4-d]pyrimidine-6-carbonitrile], the negative-log IC50 (pIC50) is 4.52 to 5.00.

For `N#Cc1ccc(-c2nc(NCCO)nc3c2CN(C#N)C3)cc1` [Example 208, 4-(4-cyanophenyl)-2-((2-hydroxyethyl)amino)-5,7-dihydro-6H-pyrrolo[3,4-d]pyrimidine-6-carbonitrile], the pIC50 is 4.52 to 5.00.

As for `N#CN1Cc2nc(NCCO)nc(-c3ccc(F)c(F)c3)c2C1` [Example 209, 4-(3,4-difluorophenyl)-2-((2-hydroxyethyl)amino)-5,7-dihydro-6H-pyrrolo[3,4-d]pyrimidine-6-carbonitrile], the negative logarithm of the IC50 (pIC50) is 5.00 to 6.00.

Take `CC(=O)Nc1cccc(-c2nc(NCCO)nc3c2CN(C#N)C3)c1` [Example 210, N-(3-(6-cyano-2-((2-hydroxyethyl)amino)-6,7-dihydro-5H-pyrrolo[3,4-d]pyrimidin-4-yl)phenyl)acetamide]: the pIC50 is 5.00 to 6.00.

As to `COc1ccc(-c2nc(NCCO)nc3c2CN(C#N)C3)cc1` [Example 211, 2-((2-hydroxyethyl)amino)-4-(4-methoxyphenyl)-5,7-dihydro-6H-pyrrolo[3,4-d]pyrimidine-6-carbonitrile], the pIC50 was greater than 6.00.

Turning to `CN1CCN(c2ccc(-c3nc(NCCO)nc4c3CN(C#N)C4)cc2)CC1` [Example 212, 2-((2-hydroxyethyl)amino)-4-(4-(4-methylpiperazin-1-yl)phenyl)-5,7-dihydro-6H-pyrrolo[3,4-d]pyrimidine-6-carbonitrile], the pIC50 is 5.00 to 6.00.

Regarding `CN(C)Cc1cc2c(c(-c3ccccc3)c1)CN(C#N)C2` [Example 213, 6-((dimethylamino)methyl)-4-phenylisoindoline-2-carbonitrile], the negative-log IC50 (pIC50) was 5.00 to 6.00.

With `CC(=O)NCc1cc2c(c(-c3ccccc3)c1)CN(C#N)C2` [Example 214, N-((2-cyano-7-phenylisoindolin-5-yl)methyl)acetamide], the pIC50 is 5.00 to 6.00.

For the compound `COCCc1cc2c(c(-c3ccccc3)c1)CN(C#N)C2` [Example 215, 6-(2-methoxyethyl)-4-phenylisoindoline-2-carbonitrile], the pIC50 is 5.00 to 6.00.

Consider `CS(=O)(=O)Cc1cc2c(c(-c3ccc(C#N)cc3)c1)CN(C#N)C2` [Example 216, 4-(4-cyanophenyl)-6-((methylsulfonyl)methyl)isoindoline-2-carbonitrile], for which the negative-log IC50 (pIC50) is 5.00 to 6.00.

Turning to `CC(=O)NCc1cc2c(c(-c3ccc(C#N)cc3)c1)CN(C#N)C2` [Example 217, N-((2-cyano-7-(4-cyanophenyl)isoindolin-5-yl)methyl)acetamide], the pIC50 was 5.00 to 6.00.

As to `CC(=O)N(C)Cc1cc2c(c(-c3ccc(C#N)cc3)c1)CN(C#N)C2` [Example 218, N-((2-cyano-7-(4-cyanophenyl)isoindolin-5-yl)methyl)-N-methylacetamide], the pIC50 is 5.00 to 6.00.

As for `N#Cc1ccc(-c2cc(CNC(=O)C3CCOCC3)cc3c2CN(C#N)C3)cc1` [Example 219, N-((2-cyano-7-(4-cyanophenyl)isoindolin-5-yl)methyl)tetrahydro-2H-pyran-4-carboxamide], the pIC50 was 5.00 to 6.00.

Turning to `N#Cc1ccc(-c2cc(CNC(=O)C3CCS(=O)(=O)CC3)cc3c2CN(C#N)C3)cc1` [Example 220, N-((2-cyano-7-(4-cyanophenyl)isoindolin-5-yl)methyl)tetrahydro-2H-thiopyran-4-carboxamide 1,1-dioxide], the negative-log IC50 (pIC50) is 5.00 to 6.00.

`Cn1cc(C(=O)NCc2cc3c(c(-c4ccc(C#N)cc4)c2)CN(C#N)C3)cn1` [Example 221, N-((2-cyano-7-(4-cyanophenyl)isoindolin-5-yl)methyl)-1-methyl-1H-pyrazole-4-carboxamide]: the negative-log IC50 (pIC50) was greater than 6.00.

For the compound `CS(=O)(=O)NCc1cc2c(c(-c3ccc(C#N)cc3)c1)CN(C#N)C2` [Example 222, N-((2-cyano-7-(4-cyanophenyl)isoindolin-5-yl)methyl)methanesulfonamide], the pIC50 is 5.00 to 6.00.

Consider `CN(C)C(=O)NCc1cc2c(c(-c3ccc(C#N)cc3)c1)CN(C#N)C2` [Example 223, 3-((2-cyano-7-(4-cyanophenyl)isoindolin-5-yl)methyl)-1,1-dimethylurea], for which the negative-log IC50 (pIC50) is 5.00 to 6.00.

For `CC(C)OC(=O)NCc1cc2c(c(-c3ccc(C#N)cc3)c1)CN(C#N)C2` [Example 224, isopropyl ((2-cyano-7-(4-cyanophenyl)isoindolin-5-yl)methyl)carbamate], the negative logarithm of the IC50 (pIC50) is 5.00 to 6.00.

For `CC(=O)NCc1cc2c(c(-c3ccccc3C#N)c1)CN(C#N)C2` [Example 225, N-((2-cyano-7-(2-cyanophenyl)isoindolin-5-yl)methyl)acetamide], the pIC50 is 5.00 to 6.00.

`CC(=O)NCc1cc2c(c(-c3ccc(C#N)cc3C#N)c1)CN(C#N)C2` [Example 226, N-((2-cyano-7-(2,4-dicyanophenyl)isoindolin-5-yl)methyl)acetamide]: the negative logarithm of the IC50 (pIC50) was 5.00 to 6.00.

Regarding `CNC(=O)NCc1cc2c(c(-c3ccc(C#N)cc3)c1)CN(C#N)C2` [Example 227, 1-((2-cyano-7-(4-cyanophenyl)isoindolin-5-yl)methyl)-3-methylurea], the pIC50 was greater than 6.00.
